Tests used:
[1] = molecular target: Tyrosine-protein kinase CSK (Homo sapiens) (UniProt P41240); settings: 100 nM
Description: Inhibition of His-tagged full length human recombinant CSK expressed in Escherichia coli using Fluorescein-Poly GT as substrate at 100 nM

[2] = molecular target: Fibroblast growth factor receptor 1 (Homo sapiens) (UniProt P11362); settings: 100 nM
Description: Inhibition of His-tagged human recombinant FGFR1 (308 to 731 residues) expressed in baculovirus using Fluorescein-Poly GT as substrate at 100 nM

[3] = molecular target: Tyrosine-protein kinase Tec (Homo sapiens) (UniProt P42680); settings: 100 nM
Description: Inhibition of His-tagged full length human recombinant TEC expressed in baculovirus using Fluorescein-Poly GT as substrate at 100 nM

[4] = molecular target: Tyrosine-protein kinase receptor UFO (Homo sapiens) (UniProt P30530); settings: 100 nM
Description: Inhibition of full length His-tagged human recombinant AXL expressed in insect expression system using Fluorescein-Poly GT as substrate at 100 nM

[5] = Cmax in Swiss mouse plasma at 20 mg/kg, po by LC/MS/MS analysis; assay type: ADME, organism-based; set-up: dose 20 mg/kg, route oral
[6] = molecular target: Cyclin-dependent kinase 1/cyclin B1 (Homo sapiens) (UniProt P06493+P14635); settings: 100 nM
Description: Inhibition of CDK1/cyclinB (unknown origin) at 100 nM

[7] = AUC(0 to infinity) in Swiss mouse plasma at 20 mg/kg, po by LC/MS/MS analysis; assay type: ADME, organism-based; set-up: dose 20 mg/kg, time infinity, route oral
[8] = molecular target: Tyrosine-protein kinase ABL1 (Homo sapiens, UniProt P00519, G250E); test: Inhibition of His-tagged full length human recombinant ABL G250E mutant expressed in baculovirus using Fluorescein-Poly GT as substrate
[9] = molecular target: Dual specificity mitogen-activated protein kinase kinase 1 (Homo sapiens) (UniProt Q02750); settings: 100 nM
Description: Inhibition of full length His-tagged human recombinant MEK1 expressed in baculovirus expression system at 100 nM

[10] = molecular target: Tyrosine-protein kinase Lck (Homo sapiens, UniProt P06239); test: Inhibition of His-tagged full length human recombinant LCK expressed in baculovirus using Fluorescein-Poly GT as substrate at 100 nM
[11] = molecular target: Macrophage-stimulating protein receptor (Homo sapiens) (UniProt Q04912); settings: 100 nM
Description: Inhibition of GST-tagged human recombinant MST1R (983 to 1400 residues) expressed in baculovirus using Fluorescein-Poly GT as substrate at 100 nM

[12] = molecular target: Myotonin-protein kinase (Homo sapiens) (UniProt Q09013); settings: 100 nM
Description: Inhibition of full length GST-tagged human recombinant DMPK expressed in baculovirus expression system at 100 nM

[13] = molecular target: Epidermal growth factor receptor (Homo sapiens, UniProt P00533); test: Inhibition of GST-tagged human recombinant EGFR (668 to1210 residues) expressed in baculovirus using Fluorescein-Poly GT as substrate at 100 nM
[14] = molecular target: T1, Tyrosine-protein kinase FRK (Homo sapiens, UniProt P42685); test: Inhibition of GST-tagged full length human recombinant FRK expressed in baculovirus using Fluorescein-Poly GT as substrate
[15] = Cmax in Swiss mouse plasma at 2 mg/kg, iv by LC/MS/MS analysis; assay type: ADME, organism-based; set-up: dose 2 mg/kg, route intravenous
[16] = tested on: Tyrosine-protein kinase ABL1 (Homo sapiens), P00519 [T315I]; settings: 100 nM
Description: Inhibition of His-tagged full length human recombinant ABL1 T315I mutant expressed in baculovirus using Fluorescein-Poly GT as substrate at 100 nM

[17] = molecular target: Tyrosine-protein kinase HCK (Homo sapiens, UniProt P08631); test: Inhibition of GST-tagged full length human recombinant HCK expressed in baculovirus using Fluorescein-Poly GT as substrate at 100 nM
[18] = molecular target: Myosin light chain kinase, smooth muscle (Homo sapiens) (UniProt Q15746); settings: 100 nM
Description: Inhibition of GST-tagged human recombinant MLCK (1428 to 1771 residues) expressed in baculovirus at 100 nM

[19] = molecular target: Tyrosine-protein kinase JAK2 (Homo sapiens) (UniProt O60674); settings: 100 nM
Description: Inhibition of GST-tagged human recombinant JAK2 (809 to 1153 +9 residues) expressed in baculovirus using GFP-ST AT1 as substrate at 100 nM

[20] = molecular target: Ephrin type-B receptor 2 (Homo sapiens) (UniProt P29323); test: Inhibition of GST-tagged human recombinant EPHB2 (616 to 884 residues) expressed in baculovirus using Fluorescein-Poly GT as substrate at 100 nM
[21] = molecular target: Insulin-like growth factor 1 receptor (Homo sapiens) (UniProt P08069); settings: 100 nM
Description: Inhibition of His-tagged human recombinant IGF1R (960 to 1397 residues) expressed in baculovirus using Fluorescein-Poly GT as substrate at 100 nM

[22] = molecular target: Serine/threonine-protein kinase Nek2 (Homo sapiens) (UniProt P51955); settings: 100 nM
Description: Inhibition of HIS-tagged full length human recombinant NEK2 expressed in baculovirus using Fluorescein-PKC as substrate at 100 nM

[23] = molecular target: Hepatocyte growth factor receptor (Homo sapiens) (UniProt P08581); settings: 100 nM
Description: Inhibition of GST-tagged human recombinant cMET (956 to 1390 residues) expressed in baculovirus using Fluorescein-Poly GT as substrate at 100 nM

[24] = molecular target: Megakaryocyte-associated tyrosine-protein kinase (Homo sapiens) (UniProt P42679); settings: 100 nM
Description: Inhibition of His-tagged full length human recombinant MATK expressed in Escherichia coli using Fluorescein-Poly GT as substrate at 100 nM

[25] = molecular target: Tyrosine-protein kinase Fer (Homo sapiens) (UniProt P16591); settings: 100 nM
Description: Inhibition of His-tagged human recombinant FER (541 to 822 residues) expressed in baculovirus using Fluorescein-Poly GT as substrate at 100 nM

[26] = molecular target: Leukocyte tyrosine kinase receptor (Homo sapiens) (UniProt P29376); settings: 100 nM
Description: Inhibition of GST-tagged human recombinant TYK1 (450 to 864 residues) expressed in baculovirus using Fluorescein-Poly GT as substrate at 100 nM

[27] = molecular target: T1, Tyrosine-protein kinase FRK; settings: 100 nM
Description: Inhibition of GST-tagged full length human recombinant FRK expressed in baculovirus using Fluorescein-Poly GT as substrate at 100 nM

[28] = molecular target: RAC-beta serine/threonine-protein kinase (Homo sapiens) (UniProt P31751); settings: 100 nM
Description: Inhibition of full length His-tagged human recombinant AKT2 expressed in baculovirus using Fluorescein-Crosstide as substrate at 100 nM

[29] = molecular target: Calcium/calmodulin-dependent protein kinase type II subunit delta (Homo sapiens) (UniProt Q13557); settings: 100 nM
Description: Inhibition of full length His-tagged human recombinant CaMK2 delta expressed in baculovirus using Fluorescein-CREBtide as substrate at 100 nM

[30] = molecular target: Ephrin type-A receptor 2 (Homo sapiens) (UniProt P29317); settings: 100 nM
Description: Inhibition of GST-tagged human recombinant EPHA2 (560 to 976 residues) expressed in baculovirus using Fluorescein-Poly GT as substrate at 100 nM

[31] = molecular target: Tyrosine-protein kinase ABL2 (Homo sapiens) (UniProt P42684); settings: 100 nM
Description: Inhibition of His-tagged full length human recombinant ARG expressed in baculovirus using Fluorescein-Poly GT as substrate at 100 nM

Bcr/Abl fusion protein = Bcr/Abl fusion protein (Homo sapiens, UniProt P00519, T315I); assay type: cell-based, BaF3
Description: Inhibition of human BCR-ABL T315I mutant expressed in mouse BAF3 cells assessed as inhibition of cell proliferation after 72 hrs by MTT assay

[32] = molecular target: Serine/threonine-protein kinase D2 (Homo sapiens) (UniProt Q9BZL6); settings: 100 nM
Description: Inhibition of GST-tagged full length human recombinant PKD2 expressed in baculovirus using Fluorescein-CREBtide as substrate at 100 nM

[33] = molecular target: Tyrosine-protein kinase SYK (Homo sapiens) (UniProt P43405); settings: 100 nM
Description: Inhibition of GST-tagged full length human recombinant SYK expressed in baculovirus using Fluorescein-Poly GT as substrate at 100 nM

[34] = molecular target: Tyrosine-protein kinase ZAP-70 (Homo sapiens) (UniProt P43403); settings: 100 nM
Description: Inhibition of His-tagged full length human recombinant ZAP70 expressed in baculovirus using Fluorescein-Poly GT as substrate at 100 nM

[35] = molecular target: Phosphatidylinositol 4,5-bisphosphate 3-kinase catalytic subunit alpha isoform (Homo sapiens) (UniProt P42336); settings: 100 nM
Description: Inhibition of PI3Kalpha (unknown origin) at 100 nM

[36] = molecular target: Mitogen-activated protein kinase 14 (Homo sapiens) (UniProt Q16539); settings: 100 nM
Description: Inhibition of GST-tagged full length human recombinant p38alpha expressed in Escherichia coli using Fluorescein-Poly GT as substrate at 100 nM

[37] = tested on: Tyrosine-protein kinase ABL1 (Homo sapiens), P00519 [E255K]; test: Inhibition of His-tagged full length human recombinant ABL E255K mutant expressed in baculovirus using Fluorescein-Poly GT as substrate at 100 nM
[38] = molecular target: Fibroblast growth factor receptor 2 (Homo sapiens) (UniProt P21802); test: Inhibition of His-tagged human recombinant FGFR2 (403 to 822 residues) expressed in baculovirus using Fluorescein-Poly GT as substrate at 100 nM
[39] = molecular target: Tyrosine-protein kinase BTK (Homo sapiens) (UniProt Q06187); settings: 100 nM
Description: Inhibition of His-tagged full length human recombinant BTK expressed in baculovirus using Fluorescein-Poly GT as substrate at 100 nM

[40] = molecular target: Platelet-derived growth factor receptor alpha (Homo sapiens, UniProt P16234); test: Inhibition of full length GST-tagged human recombinant PDGFRalpha expressed in baculovirus using Fluorescein-Poly GT as substrate
[41] = molecular target: Inhibitor of nuclear factor kappa-B kinase subunit beta (Homo sapiens) (UniProt O14920); settings: 100 nM
Description: Inhibition of GST-tagged full length human recombinant IKKbeta expressed in baculovirus using Fluorescein-Poly GT as substrate at 100 nM

T1 sequence (P42685 whole entry): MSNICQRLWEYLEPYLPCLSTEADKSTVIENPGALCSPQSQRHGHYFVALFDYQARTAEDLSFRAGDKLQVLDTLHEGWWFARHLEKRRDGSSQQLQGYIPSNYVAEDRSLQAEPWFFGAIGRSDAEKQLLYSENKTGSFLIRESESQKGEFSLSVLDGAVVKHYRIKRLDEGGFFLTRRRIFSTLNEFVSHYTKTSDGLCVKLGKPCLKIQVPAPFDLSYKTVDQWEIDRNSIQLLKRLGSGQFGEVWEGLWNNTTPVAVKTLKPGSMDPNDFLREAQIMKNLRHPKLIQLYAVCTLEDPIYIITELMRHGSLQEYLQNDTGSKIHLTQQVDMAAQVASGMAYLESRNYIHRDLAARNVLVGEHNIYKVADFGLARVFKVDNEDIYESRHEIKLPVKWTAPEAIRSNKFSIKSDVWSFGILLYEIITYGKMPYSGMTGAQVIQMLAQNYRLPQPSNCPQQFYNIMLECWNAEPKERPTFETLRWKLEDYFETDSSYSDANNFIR
Sequence of Hepatocyte growth factor receptor (Homo sapiens) (P08581 whole entry): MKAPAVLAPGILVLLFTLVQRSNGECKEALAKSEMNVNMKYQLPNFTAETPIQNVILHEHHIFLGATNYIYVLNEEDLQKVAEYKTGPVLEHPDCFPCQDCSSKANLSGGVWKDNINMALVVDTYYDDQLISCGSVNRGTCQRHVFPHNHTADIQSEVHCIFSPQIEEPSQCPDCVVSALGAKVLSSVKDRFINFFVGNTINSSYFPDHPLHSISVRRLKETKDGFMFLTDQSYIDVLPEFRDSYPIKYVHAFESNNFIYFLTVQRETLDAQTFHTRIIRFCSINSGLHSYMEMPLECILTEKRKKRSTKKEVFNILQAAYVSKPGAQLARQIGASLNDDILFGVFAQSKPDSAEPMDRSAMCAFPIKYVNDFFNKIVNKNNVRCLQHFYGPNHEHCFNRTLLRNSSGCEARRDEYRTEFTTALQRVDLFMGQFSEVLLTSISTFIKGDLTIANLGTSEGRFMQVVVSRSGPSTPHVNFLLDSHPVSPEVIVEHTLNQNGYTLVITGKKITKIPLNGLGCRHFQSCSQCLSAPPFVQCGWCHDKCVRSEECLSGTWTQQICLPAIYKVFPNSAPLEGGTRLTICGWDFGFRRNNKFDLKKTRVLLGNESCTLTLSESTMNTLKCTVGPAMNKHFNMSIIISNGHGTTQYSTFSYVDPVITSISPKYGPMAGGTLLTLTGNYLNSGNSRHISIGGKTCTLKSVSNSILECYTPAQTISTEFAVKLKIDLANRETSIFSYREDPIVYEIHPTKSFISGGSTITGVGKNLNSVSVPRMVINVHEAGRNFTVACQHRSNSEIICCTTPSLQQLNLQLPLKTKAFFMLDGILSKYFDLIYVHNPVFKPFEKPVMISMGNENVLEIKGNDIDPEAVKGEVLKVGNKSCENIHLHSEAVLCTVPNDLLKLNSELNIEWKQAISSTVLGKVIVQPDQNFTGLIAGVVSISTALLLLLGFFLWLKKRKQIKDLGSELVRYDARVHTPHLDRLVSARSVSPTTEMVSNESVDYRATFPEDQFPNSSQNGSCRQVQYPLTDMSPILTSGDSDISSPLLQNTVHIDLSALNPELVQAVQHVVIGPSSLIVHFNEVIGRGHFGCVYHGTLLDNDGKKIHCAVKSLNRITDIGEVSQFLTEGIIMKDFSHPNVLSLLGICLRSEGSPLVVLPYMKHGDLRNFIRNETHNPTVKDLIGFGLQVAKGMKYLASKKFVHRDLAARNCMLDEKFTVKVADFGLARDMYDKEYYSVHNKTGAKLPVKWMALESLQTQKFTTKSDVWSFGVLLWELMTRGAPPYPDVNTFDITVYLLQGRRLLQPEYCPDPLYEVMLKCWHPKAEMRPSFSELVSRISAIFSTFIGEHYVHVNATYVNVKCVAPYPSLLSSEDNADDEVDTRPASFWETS
Sequence of Tyrosine-protein kinase Lck (P06239 2-509 limits assumed): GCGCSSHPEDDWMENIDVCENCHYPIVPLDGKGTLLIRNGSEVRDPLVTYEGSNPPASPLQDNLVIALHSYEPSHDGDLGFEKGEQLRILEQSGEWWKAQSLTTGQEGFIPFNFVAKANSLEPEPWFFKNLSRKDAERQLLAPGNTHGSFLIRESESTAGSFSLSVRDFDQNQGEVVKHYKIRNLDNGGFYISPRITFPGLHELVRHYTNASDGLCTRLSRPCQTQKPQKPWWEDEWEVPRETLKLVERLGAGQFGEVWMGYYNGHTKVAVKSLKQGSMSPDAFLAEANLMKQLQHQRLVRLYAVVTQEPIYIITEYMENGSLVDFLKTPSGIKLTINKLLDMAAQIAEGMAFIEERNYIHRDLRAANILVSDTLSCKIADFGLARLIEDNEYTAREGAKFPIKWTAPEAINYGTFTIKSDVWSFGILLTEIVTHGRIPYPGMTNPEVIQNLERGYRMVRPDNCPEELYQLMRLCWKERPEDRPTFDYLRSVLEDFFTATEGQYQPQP
Sequence of Leukocyte tyrosine kinase receptor (Homo sapiens) (P29376 whole entry): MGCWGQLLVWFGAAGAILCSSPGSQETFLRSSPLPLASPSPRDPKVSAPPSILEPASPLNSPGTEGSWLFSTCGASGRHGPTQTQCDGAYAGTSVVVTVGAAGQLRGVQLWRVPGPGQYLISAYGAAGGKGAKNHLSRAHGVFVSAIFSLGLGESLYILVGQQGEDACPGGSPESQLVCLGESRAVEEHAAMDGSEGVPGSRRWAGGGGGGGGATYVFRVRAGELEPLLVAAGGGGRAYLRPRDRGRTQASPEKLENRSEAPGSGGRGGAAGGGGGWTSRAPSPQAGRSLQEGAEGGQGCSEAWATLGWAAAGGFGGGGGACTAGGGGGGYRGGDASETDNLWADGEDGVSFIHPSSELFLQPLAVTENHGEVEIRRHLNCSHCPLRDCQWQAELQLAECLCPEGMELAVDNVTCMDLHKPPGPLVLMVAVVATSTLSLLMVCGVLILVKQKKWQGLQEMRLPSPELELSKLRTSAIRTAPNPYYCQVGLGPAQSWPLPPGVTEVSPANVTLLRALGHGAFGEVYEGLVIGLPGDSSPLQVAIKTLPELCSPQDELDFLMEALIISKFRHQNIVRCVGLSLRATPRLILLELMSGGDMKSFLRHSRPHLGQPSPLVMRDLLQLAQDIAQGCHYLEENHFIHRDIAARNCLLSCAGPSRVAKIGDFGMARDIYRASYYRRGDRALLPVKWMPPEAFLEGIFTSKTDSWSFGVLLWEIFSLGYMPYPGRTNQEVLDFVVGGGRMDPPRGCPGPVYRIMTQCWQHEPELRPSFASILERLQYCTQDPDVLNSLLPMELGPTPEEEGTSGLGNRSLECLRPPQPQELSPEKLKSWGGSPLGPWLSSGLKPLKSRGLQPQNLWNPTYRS
Sequence of Myotonin-protein kinase (Homo sapiens) (Q09013 whole entry, the tested form may be a part): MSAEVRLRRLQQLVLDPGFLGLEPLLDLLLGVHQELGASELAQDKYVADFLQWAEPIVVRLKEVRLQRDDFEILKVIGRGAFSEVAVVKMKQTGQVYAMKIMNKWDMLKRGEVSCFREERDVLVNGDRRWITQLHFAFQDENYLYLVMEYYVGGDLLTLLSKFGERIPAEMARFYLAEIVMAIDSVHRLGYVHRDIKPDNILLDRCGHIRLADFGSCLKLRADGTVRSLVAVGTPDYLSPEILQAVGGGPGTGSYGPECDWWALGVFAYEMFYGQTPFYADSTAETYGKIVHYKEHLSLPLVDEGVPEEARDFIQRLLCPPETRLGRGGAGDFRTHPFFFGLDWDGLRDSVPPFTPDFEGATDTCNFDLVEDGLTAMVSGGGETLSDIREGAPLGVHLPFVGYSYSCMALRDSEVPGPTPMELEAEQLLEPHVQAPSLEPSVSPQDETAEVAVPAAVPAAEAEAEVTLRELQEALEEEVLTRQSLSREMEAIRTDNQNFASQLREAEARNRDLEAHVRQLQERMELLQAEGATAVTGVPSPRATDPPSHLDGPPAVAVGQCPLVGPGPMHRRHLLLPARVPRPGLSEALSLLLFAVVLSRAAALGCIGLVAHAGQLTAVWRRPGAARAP
Sequence of Tyrosine-protein kinase Tec (Homo sapiens) (P42680 whole entry): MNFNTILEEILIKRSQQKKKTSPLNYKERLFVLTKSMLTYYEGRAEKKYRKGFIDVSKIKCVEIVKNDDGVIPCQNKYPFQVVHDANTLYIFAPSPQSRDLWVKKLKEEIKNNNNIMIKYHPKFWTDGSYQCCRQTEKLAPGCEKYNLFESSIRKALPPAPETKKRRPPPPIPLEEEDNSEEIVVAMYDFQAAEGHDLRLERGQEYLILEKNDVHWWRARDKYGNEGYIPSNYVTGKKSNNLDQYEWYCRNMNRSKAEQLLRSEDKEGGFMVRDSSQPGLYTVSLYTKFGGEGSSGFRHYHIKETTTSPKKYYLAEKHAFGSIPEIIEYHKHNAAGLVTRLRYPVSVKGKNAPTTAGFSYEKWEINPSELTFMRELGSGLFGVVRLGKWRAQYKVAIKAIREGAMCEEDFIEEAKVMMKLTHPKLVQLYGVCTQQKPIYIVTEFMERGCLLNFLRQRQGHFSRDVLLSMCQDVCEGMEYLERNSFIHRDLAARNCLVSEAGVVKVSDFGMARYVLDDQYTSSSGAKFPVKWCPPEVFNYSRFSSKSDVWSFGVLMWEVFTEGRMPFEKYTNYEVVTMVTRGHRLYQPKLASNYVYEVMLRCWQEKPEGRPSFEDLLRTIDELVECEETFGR
Sequence of Dual specificity mitogen-activated protein kinase kinase 1 (Homo sapiens) (Q02750 whole entry): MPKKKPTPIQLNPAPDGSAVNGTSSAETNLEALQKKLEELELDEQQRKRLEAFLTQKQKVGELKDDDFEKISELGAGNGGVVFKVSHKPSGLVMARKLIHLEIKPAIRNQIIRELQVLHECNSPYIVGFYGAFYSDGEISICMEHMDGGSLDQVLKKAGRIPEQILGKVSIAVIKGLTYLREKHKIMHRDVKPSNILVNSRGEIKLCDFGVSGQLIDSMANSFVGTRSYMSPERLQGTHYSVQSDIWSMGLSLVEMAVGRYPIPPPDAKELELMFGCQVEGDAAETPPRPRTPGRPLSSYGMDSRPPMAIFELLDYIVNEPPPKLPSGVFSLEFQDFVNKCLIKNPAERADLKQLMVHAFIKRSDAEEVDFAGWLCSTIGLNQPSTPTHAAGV

COC(=O)c1cc2cc(NCc3cc(NC(=O)c4cc(-n5cnc(C)c5)cc(C(F)(F)F)c4)ccc3C)cnc2[nH]1
62 nM: IC50 [14]
52%: inhibition [38]
< 40%: inhibition [1] | inhibition [2] | inhibition [3] | inhibition [4] | inhibition [6] | inhibition [9] | inhibition [11] | inhibition [12] | inhibition [16] | inhibition [18] | inhibition [19] | inhibition [21] | inhibition [22] | inhibition [23] | inhibition [24] | inhibition [25] | inhibition [26] | inhibition [27] | inhibition [28] | inhibition [29] | inhibition [30] | inhibition [31] | inhibition [32] | inhibition [33] | inhibition [34] | inhibition [35] | inhibition [36] | inhibition [39] | inhibition [41]
1.8 nM: EC50 (Bcr/Abl fusion protein)
853 ng/mL: Cmax [15]
610 ng/mL: Cmax [5]
3030 ng·h/mL: AUC(0-inf) [7]
> 80%: inhibition [10] | inhibition [17] | inhibition [20] | inhibition [37]
50 nM: IC50 [40]
46 nM: IC50 [8]
82%: inhibition [13]

Reference: ChEMBL document CHEMBL3808348, “Rational Design, Synthesis, and Biological Evaluation of 7-Azaindole Derivatives as Potent Focused Multi-Targeted Kinase Inhibitors” (J Med Chem, 2016)
